Data on four compounds can be found in ChEMBL document CHEMBL5042549, “Discovery of Inhibitors of the Lipopolysaccharide Transporter MsbA: From a Screening Hit to Potent Wild-Type Gram-Negative Activity” (J Med Chem, 2022).

≈ marks a conversion by molar mass, not a printed value. Where “and” joins values, the source holds several entries; their conditions need not be identical. Identical values can stand only once. Calls of active or inactive are those of the source.

Data set [1] deals with Klebsiella pneumoniae. The data set is described as follows: Antibacterial activity against wild type Klebsiella pneumoniae MGH78578 (ATCC 700721) assessed as bacterial growth inhibition by broth microdilution assay. The format is functional.
Data set [2] relates to Escherichia coli. In words: Antibacterial activity against wild type Escherichia coli CFT073 (ATCC 700928) assessed as induction of cell lysis at 50 microM by electron microscopy. In kind it is functional, organism-based.
The test system of data set [3] is Enterobacter cloacae. The data set is described as follows: Antibacterial activity against wild type Enterobacter cloacae (ATCC 13047) assessed as bacterial growth inhibition by broth microdilution assay. In kind it is functional.
A further data set has as its system Pseudomonas aeruginosa. The data set is described as follows: Antibacterial activity against wild type Pseudomonas aeruginosa PA14 assessed as bacterial growth inhibition by broth microdilution assay. In kind it is functional. On the technique in general: Broth dilution looks for growth in wells or tubes with falling amounts of substance.
Data set [4] concerns Escherichia coli. In words: Antibacterial activity against wild type Escherichia coli CFT073 (ATCC 700928) assessed as bacterial growth by broth microdilution assay. In kind it is functional.
The subject of data set [5] is Escherichia coli. The data set is described as follows: Selectivity ratio of MIC for Escherichia coli MG1655 msbA-cKO lptD (imp4213) […]. In kind it is functional.
The nature of data set [6]: Clearance in CD-1 mouse at 1 mg/kg, iv measured upto 8 hrs by LC-MS/MS analysis. In kind it is ADME, organism-based. Conditions: in vivo.
Data set [7] can be described thus: Half life in CD-1 mouse at 1 mg/kg, iv measured upto 8 hrs by LC-MS/MS analysis. In kind it is ADME, organism-based. Conditions: in vivo.
Data set [8] deals with Escherichia coli. In words: Antibacterial activity against wild type Escherichia coli MG1655 msbA-cKO lptD (imp4213) expressing Escherichia coli MsbA assessed as bacterial growth inhibition by broth microdilution assay. The format is functional.
The subject of another data set is Acinetobacter baumannii. In words: Antibacterial activity against wild type Acinetobacter baumannii (ATCC 17978) assessed as bacterial growth inhibition by broth microdilution assay. The format is functional.
The subject of data set [9] is Escherichia coli. In words: Antibacterial activity against wild type Escherichia coli MG1655 msbA-cKO lptD (imp4213) expressing Acinetobacter baumannii MsbA assessed as bacterial growth inhibition by broth microdilution assay. In kind it is functional.
The nature of data set [10]: Inhibition of Escherichia coli MsbA preincubated for 10 mins followed by ATP addition and incubated for 1 hr by fluorescence polarization assay.
The nature of data set [11]: Lipophilicity, logD of compound by shake flask method. In kind it is physicochemical. Conditions: octanol/water.
The subject of data set [12] is Klebsiella pneumoniae. In words: Antibacterial activity against wild type Klebsiella pneumoniae MGH78578 (ATCC 700721) assessed as membrane stacking at 50 microM by electron microscopy. In kind it is functional, organism-based.
Data set [13] concerns Enterobacter cloacae. The data set is described as follows: Antibacterial activity against wild type Enterobacter cloacae (ATCC 13047) assessed as membrane stacking at 50 microM by electron microscopy. In kind it is functional, organism-based.
The next data set concerns Jurkat. In words: Cytotoxicity against human Jurkat cells at 50 uM. The format is toxicity, cell-based.
A further data set concerns HEK293. In words: Cytotoxicity against human HEK293 cells at 50 uM. The format is toxicity, cell-based. Conditions: hek293, 50 µM.
For a further data set, the system named is A549. In words: Cytotoxicity against human A549 cells at 50 uM. The format is toxicity, cell-based. As to conditions: a549, 50 µM.
Data set [14] relates to Escherichia coli. The data set is described as follows: Antibacterial activity against wild type Escherichia coli MG1655 carrying lptD (imp4213) assessed as bacterial growth inhibition by broth microdilution assay. The format is functional.

As usually defined, the MIC is the lowest concentration that inhibits growth of the organism. The term clearance denotes the volume of plasma or blood freed of the substance per unit of time. In general, half-life refers to the time needed for the level to fall by half in the phase considered. A high value points to slow loss. In general, IC50 refers to the concentration needed to halve the response being measured. A word on the logD: it is lipophilicity at a set pH, counting ionised and neutral species. On to `C[C@H](Oc1ccc2ccc(/C=C/c3nn[nH]n3)c(C3CC3)c2c1)c1c(Cl)cccc1Cl`, for which the MIC was 6 µM (≈ 2.71 µg/mL) in the data set on Klebsiella pneumoniae [1]; 6 µM (≈ 2.71 µg/mL) in the data set with Enterobacter cloacae [3]; over 100 µM in the data set on Pseudomonas aeruginosa; 6 µM and 2.7 µg/mL in the data set on Escherichia coli [4]; 0.8 µM (≈ 0.361 µg/mL) in the data set with Escherichia coli [8]; over 100 µM in the data set with Acinetobacter baumannii. Also, in the data set with Escherichia coli [9], the MIC is over 71 µM. In addition, the outcome in the data set with Escherichia coli [2], in the data set on Klebsiella pneumoniae [12] and in the data set on Enterobacter cloacae [13] was Active. For the same compound, in the data set with Escherichia coli [5], the Selectivity ratio was over 89. Further, the clearance in [6] is 8 mL/min/kg. In data set [7], this compound showed a half-life of 1.4 h. In addition, the IC50 in data set [10] came to 3 nM. Also, the logD in [11] was determined as 4.3.
Regarding `C[C@H](Oc1ccc2ncc(/C=C/c3nn[nH]n3)c(C3CC3)c2c1)c1c(Cl)cccc1Cl`, the MIC was 12 µM (≈ 5.43 µg/mL) with Klebsiella pneumoniae [1]; 25 µM (≈ 11.3 µg/mL) in the data set with Enterobacter cloacae [3]; 12 µM with Escherichia coli [4]; under 0.1 µM in the data set with Escherichia coli [8]; 50 µM (≈ 22.6 µg/mL) in the data set with Escherichia coli [9]. Besides, the Selectivity ratio in the data set on Escherichia coli [5] is over 500. For the same compound, the Activity result in the data set with Jurkat, in the data set on HEK293 and in the data set on A549 was “Non-Toxic” throughout. Further, in data set [10], the IC50 amounted to 2 nM. In [11], this compound returned a logD of 4.3.
As for `C[C@H](Oc1ccc2ncc(/C=C/c3nn[nH]n3)c(C(F)F)c2c1)c1c(Cl)cccc1Cl`, the MIC in the data set on Klebsiella pneumoniae [1] stood at 25 µM (≈ 11.6 µg/mL); in the data set on Enterobacter cloacae [3], 50 µM (≈ 23.1 µg/mL); with Escherichia coli [4] it was 25 µM; in the data set with Escherichia coli [8] it was 1.6 µM (≈ 0.74 µg/mL); with Escherichia coli [9], 50 µM (≈ 23.1 µg/mL). For the same compound, the Selectivity ratio in the data set with Escherichia coli [5] came out at 31. Moreover, the Activity result in the data set with Jurkat, with HEK293 and in the data set with A549 was “Non-Toxic” each time. The IC50 in data set [10] was determined as 8 nM. For the same compound, the logD in data set [11] came to 3.3.
Turning to `C[C@H](Oc1ccc(NC(=O)CC(=O)O)c(C2CC2)n1)c1c(Cl)ccc(F)c1Cl`, the MIC in the data set on Escherichia coli [4] was over 100 µM; in the data set with Escherichia coli [14] it was 31 µM (≈ 13.2 µg/mL). This compound also had an IC50 in data set [10] of 12 nM. In data set [11], this compound returned a logD of 1.4.
